For this experiment, the species on record is Rattus norvegicus. The experiment is described as follows: animal or person. Particulars: Sprague-Dawley, Abdomen, po, 0.5 h, read-out: Inhibition.

This is an account of results in ChEMBL document CHEMBL1138184, “Synthesis and structure-activity relationship studies of 1,3-diarylprop-2-yn-1-ones: dual inhibitors of cyclooxygenases and lipoxygenases” (J Med Chem, 2006).

Description: Inhibitory activity against 4% NaCl-induced abdominal constriction in Sprague-Dawley rat after 30 min of 5 mg/kg, po

Regarding `Cc1ccc(-c2cc(C(F)(F)F)nn2-c2ccc(S(N)(=O)=O)cc2)cc1` [CELECOXIB], the inhibition in vivo at 5 mg/kg came to 69.3%.
